Laboratory results from article PMC6212778, “Site-specific amino acid substitution in dodecameric peptides determines the stability and unfolding of c-MYC quadruplex promoting apoptosis in cancer cells” (Nucleic Acids Research, 2018).
Entries after “also recorded” stand apart in the source; their conditions may differ.

Tests used:
[1] = system: c-MYC promoter (Pu27-GQ) in MCF-7 cells; assay: Dual-luciferase assay, c-MYC promoter with Pu27-GQ; format: cell-based, human; details: for c-MYC promoter activity, fold repression: MCF-7, 24 h peptide treatment, 60 μM, Renilla/firefly normalised; for c-MYC promoter activity: MCF-7, 24 h, peptide 0–60 μM
Procedure: (§1) MCF-7 cells are sub-cultured into 24-well microtiter plates at a cell density of 1 × 10^5 cells/well. Reporter constructs (c-MYC, BCL-2, KRAS and VEGF-A) (500 ng) with and/or without the G-quadruplex scaffolds triggering the expression of Renilla luciferase are co-transfected with 50 ng of pGL3-control vectors (Promega) (used as internal control), encoding firefly luciferase into MCF-7 cells using Lipofectamine® 3000 transfection reagent (Thermo-Fisher Scientific) following manufacturer's recommendations (Supplementary information Section 1). Twenty four hours post-transfection, cells are treated with peptides (FK13, KR12A, KR12B, KR12C, KR12D and KR12E) at an increasing concentration gradient.
(§2) Dual-luciferase assays are performed to examine the intracellular selectivity of peptides for c-MYC quadruplex isomers (Pu27, Myc22 and Pu19) over other oncogenic quadruplexes (BCL-2, VEGF-A and KRAS) of different topologies. The role of peptide-quadruplex complex in oncogene promoter activation is investigated in contrast to the GQ-null promoter constructs into MCF-7 cells ([67]). After 24 h of peptide treatment, cells are washed and lysed into 100 μl 1× Passive lysis buffer (PLB) for 15 min at room temperature. Renilla and firefly Luciferase activities in 25 μl lysate are quantified by Dual-Luciferase® reporter assay system (Promega) as per manufacturer's recommendations. Renilla luciferase enzyme activity is normalized to that of the firefly luciferase activity and luminescence of the peptide-treated samples are normalized to the untreated ones, which yield the fold induction values for Renilla activities by different quadruplex structures in presence and absence of synthetic peptides. Luminescence of each sample is detected in GloMax® 20/20 Single-Tube Luminometer (Promega) in triplicates and averaged from three independent experiments.

[2] = system: c-MYC promoter with Myc22 isomer in MCF-7 cells; assay: Dual-luciferase assay, c-MYC promoter under control of Myc22; format: cell-based, human; details: MCF-7, 24 h peptide treatment
Procedure: as §1, §2

[3] = system: c-MYC transcripts in MCF-7 cells; assay: Real time PCR of c-MYC transcripts; format: cell-based, human; details: MCF-7, 24 h, qPCR normalised to GAPDH
Procedure: To inspect the transcription inhibitory roles of peptides in c-MYC, BCL-2, VEGF-A and KRAS oncogenes having putative quadruplexes in their promoters, we performed real time polymerase chain reactions. MCF-7 cells are sub-cultured into 6-well microtiter plates at a density of 1 × 10^6 cells per well and treated with different concentrations of peptides (FK13, KR12A, KR12B and KR12C) for 24 hours. Total RNA is isolated from both untreated and treated cells using TRIzol method (Invitrogen) as per manufacturer's instructions. 2 μg of total RNA is processed for cDNA synthesis and reverse transcribed using a Super MuLV RT Kit (Biobharati Life Sciences Pvt. Ltd.). Real time PCR is performed using Maxima SYBR Green/ROX qPCR Master Mix (2×) (Thermo-Scientific) as per manufacturer's protocol. Housekeeping gene, GAPDH is used as an internal control to normalize the variability in c-MYC mRNA expression levels (Supplementary information Section 1). PCR primers are designed using Primer-BLAST, NCBI, and analyzed in OligoAnalyser 3.1-IDT (Supplementary Table S2).

[4] = system: VEGF-A promoter (VEGF-A-GQ) in MCF-7 cells; assay: Dual-luciferase assay, VEGF-A promoter with VEGF-A-GQ; format: cell-based, human; details: MCF-7, 24 h, peptide 0–60 μM
Procedure: as §1, §2

[5] = system: RNAPII at c-MYC promoter in MCF-7 cells; assay: ChIP, RNA polymerase II occupancy at c-MYC promoter; format: cell-based, human; details: MCF-7, 24 h, ChIP-qPCR versus IgG control
Procedure: Chromatin immunoprecipitation studies are conducted to monitor the promoter occupancies of different transcription factors (Sp1, NM23-H2 and Nucleolin) and RNA polymerase II (RNAPII) on the region encompassing c-MYC-NHE III1 ([69]). We have grown MCF-7 cells in 10-cm^2 culture flask at a density of 1 × 10^6 cells per well and treated with the synthetic peptides (FK13, KR12A, KR12B, and KR12C) for 24 hours. Cells are cross-linked with 1% formaldehyde at room temperature for 10 min and the reaction is stopped by 0.125 M glycine at room temperature for 10 min. Fixed cells are lysed and sonicated to yield DNA fragments of 200–500 bp. ChIP-grade antibodies (NM23-H2 (L-15) Antibody (sc-14790, Santa Cruz), and Anti-Nucleolin antibody [4E2]-ChIP Grade (Abcam)), Anti Sp1 antibody (Sigma), and Rpb1 (RNAPII subunit b1) CTD (C-terminal domain) 4H8 antibody are added to the sonicated chromatin and incubated overnight at 4°C. Then, 10 μl protein A magnetic beads (Dynal, Invitrogen), previously washed in RIPA buffer are added to the samples and bead–protein complexes are washed thrice with RIPA buffer and twice with TE buffer. The genomic DNA is eluted for 2 h at 68°C in complete elution Buffer (20 mM Tris, pH 7.5, 5 mM EDTA, 50 mM NaCl, 1% SDS and 50 μg/ml proteinase K) and further combined with the DNA eluted from second elution for 10 min at 68°C in 100 μl of elution buffer (20 mM Tris, pH 7.5, 5 mM EDTA and 50 mM NaCl). ChIP-isolated DNA is purified using MinElute Purification kit (Qiagen) and is amplified by PCR (Polymerase Chain Reaction) reactions using forward and reverse primers ([70]) (Supplementary Table S4) specific to the quadruplex-enriched regions at c-MYC promoter and Phusion® High-Fidelity PCR Kit (NEB). Anti-rabbit IgG is employed for mock immunoprecipitation (Negative control).

[6] = system: c-MYC promoter with Pu19 isomer in MCF-7 cells; assay: Dual-luciferase assay, c-MYC promoter under control of Pu19; format: cell-based, human; details: MCF-7, 24 h peptide treatment
Procedure: as §1, §2

c-MYC quadruplex Pu27 = assay: CD melting of free and peptide-bound Pu27; format: binding, human
Procedure: To understand the role of peptides (FK13, KR12A, KR12B, KR12C, KR12D and KR12E) in stabilizing native and truncated isomers of c-MYC G-quadruplex, we have performed temperature-driven CD melting experiments for free and peptide-bound complexes in JASCO-J815 CD spectrometer. We have gradually titrated the peptides into 10 μM of putative quadruplexes and acquired the spectra after 5 min of peptide addition to allow complex formation and equilibration. Samples are heated from 20 to 95°C having the temperature gradient and the delay time of 2.5°C/min and 150 s respectively. Since the quadruplexes unfold at higher temperatures and revert back to their initial conformations upon renaturation, we have assumed a ‘two-state transition’ model (folded and unfolded) to analyze the melting curves and estimated the melting temperatures (Tm) by fitting the data points into sigmoidal curves (Supplementary information Section 1).

[7] = 10 μM quadruplex, two-state model

Row | rise in the Tm of Pu27 upon peptide binding (c-MYC quadruplex Pu27; [7]) [°C] | decrease of the Tm of Pu27 upon peptide binding (c-MYC quadruplex Pu27; [7]) [°C] | Substance | c-MYC promoter activity, fold repression [1] [fold] | c-MYC promoter activation under control of Myc22 [2] | c-MYC transcription [3] | VEGF-A promoter activity [4] | RNAPII occupancy at c-MYC promoter [5] | c-MYC promoter activation under control of Pu19 [6] | c-MYC promoter activity [1] | c-MYC promoter attrition in presence of Myc22, fold [2] [fold] | c-MYC transcription, fold repression [3] [fold] | c-MYC promoter attrition in presence of Pu19, fold [6] [fold] | effect on thermal stability of Pu27 (c-MYC quadruplex Pu27)
1 |  |  | N – FKRIVQRIKDFLR – C [FK13] | ~2 | attenuated | did not downregulate c-MYC transcription | significantly downregulate; also recorded: strongly inhibited | did not significantly altered | attenuated |  |  |  |  | 
2 | 9 |  | N – KRIVKLIKKWLR – C [KR12C] |  |  |  | no significant impact | significantly depleted |  | selectively attenuated | ~5 | ~5 | ~5 | 
3 |  |  | N – KRIVKRIKKWLR – C [KR12B, dodecameric mutant peptide derived from FK13 / LL37] |  |  |  | strongly inhibited | significantly depleted | weaker | selectively attenuated |  | ~5 |  | did not significantly induce thermal stability
4 |  | ~30 | N – KRIVQRIKKWLR – C [KR12A, dodecameric mutant peptide derived from FK13 / LL37] | ~2 | attenuated | downregulated c-MYC transcription in a dose-dependent manner | significantly downregulate | depleted RNAPII occupancy | attenuated |  |  |  |  | 
